Results taken from patent US11661433B2, “Near-IR activatable fluorescent small molecules with dual modes of cytotoxicity” (VIRGINIA COMMONWEALTH UNIVERSITY, priority 2018, dated 2023).
Where two headings read alike, the source gives them in different places. Values belong to the compound of their own block, whether it stands above or below them.

How the values were obtained:
[1] = system: human cancer cell lines; assay: MTT cytotoxicity in a panel of human cancer cell lines; format: cell-based; conditions: dark, similar conditions
Method: MTT assay: Cytotoxic profiles of the compounds were assessed in the following cell lines (passage number not exceeding 15): MCF-7 (human breast cancer) C-33 A (human cervical carcinoma) and HEK293T (transformed human kidney). Around 6000 cells were seeded in 96 well transparent flat-bottom tissue-culture plate in 200 μl of Dulbecco's Modified Eagle Medium (DMEM) containing 10% FBS (Fetal Bovine Serum) and were incubated for 24 h at 37° C. and 5% CO2. We performed an initial control experiment with vehicle alone (0.1% DMSO-DMEM) on cells with different dosages of near-IR light and compared it to unexposed counterparts. The cells were unharmed by light and vehicle alone up to 45 min of photoirradiation. Cells were treated with various concentrations of 1, 2, IR797-acac, cisplatin and an equimolar mixture of IR797-acac and cisplatin in 0.1% DMSO-DMEM for 4 h or 48 h in the dark. One such plate was exposed to near-IR light for 45 min in phenol-red free DMEM (200 μl) and room temperature was maintained using a cooling system. Another identical plate was kept in dark. The plates were incubated for another 24 h in dark. Finally, MTT [3-(4,5-dimethylthiazole-2-yl)-2,5-diphenyltetrazolium bromide] […] The absorbance of the precipitated formazan was recorded at 550 nm in DMSO. […] The half-growth inhibitory concentration (IC50) values were calculated by nonlinear regression analysis using GraphPad Prism5. […]

[2] = system: C-33 A (human cervical carcinoma); assay: MTT assay, C-33 A cells; format: cell-based
[3] = Photodecomposition and dark stability (absorbance, LC-MS); format: physicochemical; conditions: buffer, pH 7.4
Method: High performance liquid chromatography: For verifying purity, samples (25 μl in 2.5% DMSO-H2O) were loaded on an analytical C18 column and gradient was maintained at 10-100 percent of MeCN—H2O from 10-50 min. The absorbance was measured at different wavelengths within the range of 200-800 nm. For photolysis experiments, solution of 1 (30 μl of 100 nM in 0.01% of DMSO-PBS, irradiated for 1 min) was injected on the column and eluted using the same gradient as above.
Liquid-chromatography mass spectral experiments: Solutions of 1 and IR797-acac (100 nM in 0.01% DMSO-PBS) were used to carry out LC-MS studies. Samples were injected on a self-packed fused silica (polymicro technologies) trap column (360 micron o.d.×100 micron i.d.) with a Kasil frit packed with 5-15 micron irregular phenyl C-18 YMC packing. The trap column is connected to an analytical column (360 micron×50 micron) with a fritted tip at 5 micron or less (New Objective) packed with 5 μm phenyl C-18 YMC packing. Compounds were initially trapped and then eluted into a Thermo Finnigan LCQ deca XP max mass spectrometer (Thermo Scientific) with an acetonitrile gradient from 0% to 80% over 5 minutes at a flow rate of between 50-150 nl/min. […]

[4] = system: ctDNA; assay: DNA melting experiments and Hoechst displacement assays; format: binding; conditions: in the dark
Method: DNA thermal denaturation experiments: The DNA thermal denaturation experiments were performed by monitoring the absorption intensity of ct-DNA (200 μM) at 260 nm at increasing temperatures (from 40 to 90° C.), both in the absence and presence of complex 1 and IR797-acac (20 μM in 1% DMSO-DPBS solutions, pH=7.2). The experiments were performed using Agilent UV-visible spectrophotometer connected to a Peltier thermostat for temperature control. Data was recorded with increasing the temperature of the solution by 1.0° C. per min. The derivative of the melting plots gave the DNA melting temperature (Tm) of the ct-DNA. Ethidium bromide (20 μM) as a standard intercalator was used for comparison.

[5] = system: MCF-7 (human breast cancer); assay: MTT assay, MCF-7 cells; format: cell-based
Method: MTT assay: Cytotoxic profiles of the compounds were assessed in the following cell lines (passage number not exceeding 15): MCF-7 (human breast cancer) C-33 A (human cervical carcinoma) and HEK293T (transformed human kidney). Around 6000 cells were seeded in 96 well transparent flat-bottom tissue-culture plate in 200 μl of Dulbecco's Modified Eagle Medium (DMEM) containing 10% FBS (Fetal Bovine Serum) and were incubated for 24 h at 37° C. and 5% CO2. We performed an initial control experiment with vehicle alone (0.1% DMSO-DMEM) on cells with different dosages of near-IR light and compared it to unexposed counterparts. […] One such plate was exposed to near-IR light for 45 min in phenol-red free DMEM (200 μl) and room temperature was maintained using a cooling system. Another identical plate was kept in dark. The plates were incubated for another 24 h in dark. Finally, MTT [3-(4,5-dimethylthiazole-2-yl)-2,5-diphenyltetrazolium bromide] (25 μl of 5 mg/ml solution in PBS) was added and incubated for 3-4 h. The absorbance of the precipitated formazan was recorded at 550 nm in DMSO. Cells treated with 0.1% DMSO-DMEM was kept as controls which represented 100% viability. The half-growth inhibitory concentration (IC50) values were calculated by nonlinear regression analysis using GraphPad Prism5. The data is represented from two independent set of experiments, each of which was performed in triplicate.

[6] = Solubility in solvents; format: physicochemical
Method: Synthesis of IR797-acac: IR797 chloride (250 mg, 0.49 mmol), acetylacetone (245 μl, 2.45 mmol) and N,N-diisopropylethylamine (90 μl, 0.49 mmol) were dissolved in acetonitrile (10 mL) in a sealed vial. The dark green colored solution was heated at 70° C. on a microwave apparatus (Discover, CEM, 60 W) for 15 mins. The progress of the reaction was monitored via TLC and stopped only after full consumption of the starting dye. The reaction mixture was allowed to cool down to room temperature and dichloromethane (50 mL) was added. The organic layer was washed using saturated sodium bicarbonate solution (2×10 ml), dried over anhydrous sodium sulfate, filtered, and evaporated using a rotavac. The crude material was subjected to column chromatography using ethyl acetate (100%) and dichloromethane-methanol eluents (0-10%) to yield pure product, IR797-acac (150 mg, 50% yield). ^1H NMR (400 MHz, CDCl3): δ (ppm)=7.43-7.36 (m, 4H), 7.31 (d, J=7.4 Hz, 2H), 7.21 (t, J1=J2=7.2 Hz, 2H), 7.11 (d, J=8.0 Hz, 2H), 6.20 (d, J=14 Hz, 2H), 3.74 (s, 6H), 3.15 (s, 4H), 2.00 (s, 6H), 1.58 (s, 12H). ^13C NMR (100 MHz, CDCl3): δ (ppm)=191.42, 170.78, 144.66, 142.96, 140.71, 137.40, 128.80, 124.99, 122.04, 110.04, 103.39, 48.82, 32.53, 28.42, 23.60. ESI-MS in MeCN: m/z (expected)=533.33, m/z (observed)=533.32 [M-Cl]^+ (100%). […]

[7] = system: ctDNA; assay: DNA bound Pt content by ICP-MS; format: biochemical; conditions: extended incubation with ctDNA in the dark
Method: DNA bound Pt content: A 1×-PBS solution containing ctDNA (500 μM) and 1 (50 μM in 0.1% DMSO-PBS) was irradiated with near-IR light (720-740 nm) for 15, 30 and 60 mins. Another identical set was incubated in dark for comparison. After treatment, the DNA was precipitated from the solutions using 10 mL of cooled ethanol, vortexed, and collected by centrifugation. The precipitate was washed twice with cooled ethanol (5 mL) to remove soluble platinum complexes. The white fibrous precipitate was dissolved using 200 μl of conc. HNO3 for 12 h and diluted with distilled water to 2% HNO3-water solutions. Platinum content was measured by ICP-MS instrument. Untreated samples (DNA alone, complex alone) were kept for control. Platinum standards were made by dissolving K2PtCl4 in 98% aq. HNO3 and used for calibration. The data along with the deviation is reported based on experiments performed in duplicate.

IC50 ([2]; 4 h in dark, then light 45 mins, 720-740 nm, 3.5 ± 1.5 mW·cm^−2, read-out: IC50 C-33 A Light): 0.3 ± 0.07 µM | IC50 ([2]; 4 h in the dark, read-out: IC50 C-33 A Dark): 1.2 ± 0.1 µM | half-life of photodecomposition t1/2^L [3]: ~40 s | stability in dark t1/2^D [3]: ~10 h | DNA interaction mode [4]: interact with the minor groove of ctDNA | IC50 ([5]; 4 h in dark, then light 45 mins, 720-740 nm, 3.5 ± 1.5 mW·cm^−2, read-out: IC50 MCF-7 Light): 4.7 ± 0.8 µM | IC50 ([5]; 4 h in the dark, read-out: IC50 MCF-7 Dark): 5.9 ± 0.3 µM | solubility [6]: readily soluble in polar solvents
SMILES: CC(=O)C(=C(C)O)C1=C(C=CC2=[N+](C)c3ccccc3C2(C)C)CCC1=CC=C1N(C)c2ccccc2C1(C)C.[Cl-] [IR797-acac]
toxicity in unexposed cells [1]: toxic on its own

SMILES: CC1=CC(C)=[O+][Pt-2]([NH3+])([NH3+])[O]1.O=[N+]([O-])[O-] (centres unmarked) [Complex 2, [Pt(NH3)2(acac)](NO3)], reference compound]
incorporation of Pt into DNA in the dark [7]: slow incorporation

SMILES: N.N.[Cl][Pt][Cl] [CP, cisplatin, reference compound]
IC50 ([2]; cisplatin incubated 48 h in the dark, light 45 mins, 720-740 nm, read-out: IC50 C-33 A Light): 16.1 ± 1.5 µM | IC50 ([2]; cisplatin incubated 48 h in the dark, read-out: IC50 C-33 A Dark): 17.7 ± 1.5 µM | IC50 ([5]; cisplatin incubated 48 h in the dark, light 45 mins, 720-740 nm, read-out: IC50 MCF-7 Light): 22.5 ± 3.2 µM | IC50 ([5]; cisplatin incubated 48 h in the dark, read-out: IC50 MCF-7 Dark): 25 ± 2.2 µM
